# Results taken from patent US20250134902A1, “DRUG REPURPOSING FOR DELAYED TREATMENT OF ISCHEMIC STROKE” (UNIVESRITY OF NORTH TEXAS HEALTH SCIENCE CENTER, priority 2022, published 2025).
# Columns and labels:
# [1] = target: T1, human Sigma-1 receptor (S1R) (Homo sapiens, UniProt Q99720); assay: Radioligand competition binding at Sigma-1 receptor ([3H]-(+)-pentazocine, MCF-7-hS1R)
# T1 construct: expressed in transfected cells
# Procedure: Measuring receptor density with radioligand binding.
# Measuring the ligand affinities at SIR and S2R receptors by radioligand binding. […] Binding conditions were the same as described previously for the S1R (Schetz, et al., 2007): binding buffer (Tris 50 mM, pH=8.1 at 37° C.), ice-cold wash buffer (Tris 10 mM, pH=8.1 at 0-2° C.), and incubation time (3 hrs at 37° C.) with shaking. Non-specific binding for the S1R and S2R was determined in the presence of 5 μM BD1063 and […] haloperidol, respectively. Following incubation, receptors were collected via rapid filtration through GF/C filters (Brandel, Gaithersburg, MD) followed by washing three times with 3 mL of ice-cold wash buffer. Dried filters were transferred to vials filled with 3.5 ml of scintillation fluid, and the radioactivity was quantified on a liquid scintillation analyzer (TRICARB® 2800TR) from Perkin Elmer (Saint Louis, MO). Mean values from duplicate or triplicate determinations are reported along with their associated standard error of the mean (SEM). Ki values were calculated from IC50 values using the Cheng-Prusoff equation. The concentration of membrane protein was determined using a PIERCE® BCA Protein Assay kit (Life Technologies, Grand Island, NY) following the manufacturer's protocol.
# Referring to FIG. 1, the selectivity of potential S1R ligands over S2R was empirically evaluated. Human MCF-7 cells were used as the source of the S2R because these cells express the endogenous S2R (Vilner, John, et al., 1995; Wu & Bowen, 2008) but lack detectable levels of the S1R, allowing unambiguous detection of S2R activity in untransfected cells (Schetz, et al., 2007). MCF-7 cells stably expressing the cloned human S1R were used as the source of S1R.
# [2] = test system: neuronal MN9D cell line; assay: BDNF secretion via in situ ELISA; type: cell-based; conditions: 10 μM, 24 hrs, MN9D cells; normalized to maximal response of 10 μM 4-PPBP; mean ± SEM; asterisk = significantly different from 4-PPBP
# Description: Measuring BDNF secretion via in situ ELISA. […] The in situ ELISA improves on traditional ELISA by seeding BDNF-secreting cells directly into the wells pre-coated with an anti-BDNF primary antibody. BDNF secreted by these cells is immediately captured by the primary antibody, drastically increasing the sensitivity and reproducibility of the ELISA assay. Intact cells are removed […] the addition of the secondary and tertiary antibodies. The amount of BDNF secreted from the neuronal MN9D cells was quantified using an in situ ELISA assay developed using the BDNF EMAX® ImmunoAssay kit (Cat. No. G7611, Promega, Madison, WI). Briefly, a NUNC™ MAXISORP™ flat-bottom, polystyrene, 96-well immunoplate was coated for 48 hrs at 4° C. with an anti-BDNF monoclonal antibody diluted 1:1000 v/v in carbonate buffer containing 25 mM sodium bicarbonate and 25 mM sodium carbonate, pH 9.7. Unbound antibody was removed by washing 5 times with 150 μL of TBST buffer (20 mM Tris-HCl, pH7.6, 150 mM NaCl, and 0.05% (v/v) TWEEN® 20), before blocking non-specific sites first with blocking buffer for 1 hr and then with culture medium for 2 hrs. Cells were seeded at 35,000 cells per well and incubated overnight at 37° C. in a humidified CO2 incubator. The following day, the wells were replaced with fresh culture media containing either experimental compounds or vehicle controls, then incubated for an additional 24 hours. In addition, on the same plate, but in separate wells, BDNF standards were added ranging in concentration from 15.6-250 pg/mL. After 24 hrs incubation with experimental compounds, the media was aspirated and 100 μL of Dulbecco's phosphate saline (D-PBS without Ca^2+ and Mg^2+ supplemented with 5 mM EDTA) was added to each well and incubated for 15 min at 37° C. to promote cell lifting. Cells were then detached from the bottom of wells by triturating in the center and around the edges of the well. After removing all cell debris, the wells were rinsed five times with 150 μL of TBST. The plate was then incubated with 1:500 v/v diluted polyclonal anti-human BDNF antibody for 2 hrs at room temperature. This antibody was removed, and wells were washed five times with 150 μL of TBST, before incubating with 1:200 v/v diluted polyclonal Anti-IgY HRP conjugate for 2 hrs at room temperature. Wells were then washed five times with 150 μL of TBST and the remaining specifically bound polyclonal antibody was detected with the 50 μL colorimetric HRP substrate 3,3′,5,5′-Tetramethylbenzidine (TMB). The reaction was terminated with 50 μL of 1 M HCl and the color intensity was quantified by measuring the absorbance at 450 nm using a FLEXSTATION® 3 plate reader (Molecular Devices, Sunnyvale, CA). […] A one-way ANOVA with a Bonferroni multiple comparisons post-hoc analysis (P<0.05) was applied to determine significant differences between groups.
# Further, BDNF secreted from MN9D cells can be detected 24 hours after treatment with S1R ligand, whereas BDNF secreted from the B104 cell line takes 7 days to be detected (Fujimoto, et al., 2012).
# An in situ ELISA approach was utilized because of its improved sensitivity related to its rapid capture of secreted BDNF (Balkowiec & Katz, 2000; Dalwadi, et al., 2017). […] Values are averages of 2-10 experiments±SEM, and each experiment was performed in triplicate. Statistical significance at P<0.05 was determined by ANOVA followed by a Bonferroni's post-hoc test and are marked with an asterisk.
# T1 sequence (Q99720 whole entry): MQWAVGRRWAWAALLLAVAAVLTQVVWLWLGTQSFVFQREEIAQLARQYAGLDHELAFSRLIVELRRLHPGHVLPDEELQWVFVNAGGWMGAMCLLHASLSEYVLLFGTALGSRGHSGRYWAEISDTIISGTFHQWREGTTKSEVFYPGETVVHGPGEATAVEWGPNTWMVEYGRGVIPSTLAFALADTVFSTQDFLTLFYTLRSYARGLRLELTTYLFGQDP
smiles,measurement,setting,value
CCN(CC)CCOCCOC(=O)C(CC)(CC)c1ccccc1 [Oxeladin],selective for S1R over S2R,[1],9 fold
same,Ki,"[1]; displacement of 0.5 nM [3H]-(+)-pentazocine, MCF-7 cells expressing human S1R, average of 2-3 experiments ± SEM, read-out: S1R affinity (Ki)",25 ± 4.3 nM
same,S2R/S1R ratio (Ki S2R/Ki S1R),[1]; selectivity for S1R over S2R,6
same,Efficacy of BDNF secretion,[2],0.55 ± 0.04
